Data published in patent US20220289791A1, “LACTATE DEHYDROGENASE INHIBITOR POLYPEPTIDES FOR USE IN THE TREATMENT OF CANCER” (UNIVERSITÉ CATHOLIQUE DE LOUVAIN, priority 2019, published 2022).
*1 amine or outer side, *2 acyl side, *3 side chain or, on linkers, in order; H or OH if unused. Where a SMILES comes first, the peptide text is derived from it. Bridges are numbered along the chain shown (N, C = ends). mXylylene = c1cc(C[*:1])cc(C[*:2])c1

How the values were obtained:
LDHBtr [1] = target: T1, LDHBtr (Homo sapiens, UniProt P07195); assay: NMR WaterLOGSY binding screening
T1 sequence (P07195 21-334): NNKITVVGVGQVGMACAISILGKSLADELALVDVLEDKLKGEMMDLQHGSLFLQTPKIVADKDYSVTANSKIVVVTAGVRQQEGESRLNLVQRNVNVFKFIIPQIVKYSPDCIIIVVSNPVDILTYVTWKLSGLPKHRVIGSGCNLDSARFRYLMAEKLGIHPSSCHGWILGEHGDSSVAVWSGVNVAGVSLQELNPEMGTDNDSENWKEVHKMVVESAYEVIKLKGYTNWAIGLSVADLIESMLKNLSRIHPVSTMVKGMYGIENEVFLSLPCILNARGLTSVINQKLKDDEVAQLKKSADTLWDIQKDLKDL
Description: All experiments were acquired on a Bruker Ascend Avance III 600 MHz equipped with a broadband cryoprobe (Bruker® GmBH, Germany)
(§1) NMR WaterLOGSY was performed on samples prepared in 10% D2O buffer containing 50 mM sodium phosphate buffer, pH 7.6 and 100 mM NaCl. The concentration of LDH subunits was 15-20 μM. Ligand binding was detected using a NMR WaterLOGSY ephogsygpno.2 advance-version sequence with a […]. Water signal suppression was achieved using excitation sculpting scheme and a 50 ms spinlock was used to suppress protein background signal. For each experiment, 512 scans were collected to yield a 16K points FID. NMR WaterLOGSY intensity was corrected by plotting the intensity difference of the ligand NMR WaterLOGSY spectra recorded in the presence and absence of protein.
For NMR WaterLOGSY screening experiments a correction factor was applied to account for slight concentration variation between samples. To do so, 8 scans 1H NMR spectra with 50 ms spinlock were recorded before NMR WaterLOGSY experiments. The intensity ratio of the aliphatic region (0.700 ppm to 0.955 ppm) with and without protein was used as a correction factor to compare the NMR WaterLOGSY intensity of the polypeptides of interest with and without LDH subunits. An arbitrary threshold of 0.1, corresponding to a 10% decrease in the NMR WaterLOGSY signal intensity between the spectra with and without protein, was set to discriminate between binders and non-binders.

LDHBtr [2] = target: T1, LDHBtr; assay: Microscale thermophoresis (MST), Example 1; assay type: binding
Description: (§2) MST measurements were performed on a Nanotemper Monolith NT.115 instrument (Nanotemper Technologies®, GmbH) using Red-dye-NHS fluorescent labeling. Each LDH (WT or truncated) sample, purified to homogeneity, was labeled with the Monolith RED-NHS 2nd generation labeling dye according to the supplied protocol (Nanotemper Technologies®, GmbH). Measurements were performed in 50 mM Na-Phosphate pH 7.6 and 100 mM NaCl containing 0.05% Tween-20 in premium treated capillaries (Nanotemper Technologies®, GmbH). The final concentrations of either labeled protein in the assay were 100 nM. The ligands (NADH and peptides) were titrated in 1:1 dilutions following manufacturer's recommendations. All binding reactions were incubated 5′ at room temperature after loading into capillaries. Experiments were performed in triplicates using 40% LED power and medium MST power, LaserOn time was 20 sec, Laser Off time 3 sec. Linear octapeptides were evaluated for their thermophoretic pattern.

rabbit LDHA (LDH-M) = target: T2, rabbit LDHA (LDH-M) (Oryctolagus cuniculus, UniProt P13491); assay: Intrinsic fluorescence assay: recovery of tryptophan fluorescence after acidic dissociation, Example 1; assay type: biochemical; settings: pre-dissociation at pH 5.0, neutralization; LT018 50 μM, LB8 up to 100 μM
T2 construct: purchased Sigma-Aldrich
Description: Following described procedure; rabbit LDHA commercial solution in an ammonium sulfate suspension in (pH-7.0, 3.2 M) was first diluted to 1 mg/ml in a solution of NaCl 200 mM and then dialyzed at 4° C. 2×2 h against 200 mM NaCl. The stock solution of 1 mg/ml was then diluted to 30 μg/ml in NaCl 200 mM to give the assay solution.
Assay solution was mixed 1:1 with either an acetate-chloride buffer (20 mM Acetic acid/Acetate, 180 mM NaCl, pH 5.0) or phosphate buffer (250 mM phosphate pH 7.6). After storage at 4° C. for 30′, samples were removed and diluted 1:1,250 mM phosphate buffer (pH 7.6) to yield a 7.5 μg/ml final concentration of re-associating LDH-M.
Samples of the resulting solutions were then subjected to kinetic experiments of the recovery of intrinsic fluorescence (Exc=286 nm, Em=350 nm, 10′, rt). Full tryptophan fluorescence spectra were afterward recorded (Exc=286 nm, Em=320-400 nm, rt).
To confirm this hypothesis, experiments were therefore designed to follow the recovery of the LDH tetrameric form after a pre-dissociation initiated in slightly acidic conditions. Briefly, six tryptophan residues are found in the LDH structure, three of them being located at the dimer-dimer interface. As the tryptophan quantum yield decreases in polar environment, dimeric LDHs show very weak tryptophan fluorescence compared to tetrameric one. […] The recovery of fluorescence upon pH neutralization is therefore a direct measure of the tetramer re-association.

rabbit LDH5 (rLDH5) = target: T3, rabbit LDH5 (rLDH5) (Oryctolagus cuniculus, UniProt P13491); assay: Denaturation assay: rLDH5 fluorescence recovery after acidic exposure; assay type: biochemical; settings: 200 nM rLDH5, 50 μM peptide, pH 5 then neutral pH
T3 construct: purchased Sigma-Aldrich
Description: Rabbit LDHA commercial solution (Sigma-Aldrich®) in an ammonium sulfate suspension (pH-7, 3.2 M) was first diluted to 1 mg/ml in a solution of NaCl 200 mM and then dialyzed at 4° C. 2×2 h against 200 mM NaCl. The stock solution of 1 mg/ml was then diluted to 30 μg/ml (800 nM) in NaCl 20 0 mM to give the assay solution. Assay solution was mixed 1:1 with acetate-chloride buffer (20 mM Acetic acid/Acetate, 180 mM NaCl, 1 mM DTT pH 5) and stored on ice for 30 minutes. Samples were then removed from ice and let warm up for 2 minutes. The acidic solution was then diluted 1:1 with a 250 mM phosphate buffer (pH 7.6) containing or not the inhibitory peptide to yield a 7.5 μg/ml (200 nM) final concentration of re-associating LDHA. Samples of the resulting solutions were then subjected to kinetic experiments of the recovery of intrinsic fluorescence (Exc=286 nm, Em=350 nm, 10′, rt).
An experiment was thus designed to follow the recovery of LDH tetramers after a dissociation step initiated by acidic conditions. […] Monitoring of the rLDH5 tetrameric state was performed by following its intrinsic tryptophan fluorescence: 6 tryptophan residues can be found in each rLDHA monomer, three of them being located at the dimer-dimer interface. As the tryptophan quantum yield decreases in a polar environment, dimeric LDHs show very weak tryptophan fluorescence compared to the tetrameric form. […] Such decay can be compared to the difference in tryptophan fluorescence between tetrameric LDH1 and dimeric LDHBtr.

full length LDH1 enzyme = full length LDH1 enzyme (Homo sapiens, UniProt P07195); assay: Biochemical/biophysical evaluation of interaction with full length tetrameric LDHB; assay type: binding
Chain of full length LDH1 enzyme (P07195 whole entry): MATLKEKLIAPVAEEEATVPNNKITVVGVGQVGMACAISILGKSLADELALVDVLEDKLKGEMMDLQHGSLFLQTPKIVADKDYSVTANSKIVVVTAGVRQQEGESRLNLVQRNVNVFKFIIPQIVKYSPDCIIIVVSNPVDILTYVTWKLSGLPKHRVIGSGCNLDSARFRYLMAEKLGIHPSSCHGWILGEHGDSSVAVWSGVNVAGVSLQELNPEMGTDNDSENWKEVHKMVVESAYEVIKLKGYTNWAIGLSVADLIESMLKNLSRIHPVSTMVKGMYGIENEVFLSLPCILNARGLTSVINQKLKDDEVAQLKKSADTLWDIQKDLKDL
Description: as §1
as §2, with “The ligands (NADH and peptides) were titrated in 1:1 dilutions following manufacturer's recommendations. All binding reactions were incubated 5′ at room temperature after loading into capillaries. Experiments were performed in triplicates using 40% LED power and medium MST power, LaserOn time was 20 sec, Laser Off time 3 sec.” left out

tetrameric LDH1 = tetrameric LDH1 (Homo sapiens, UniProt P07195); assay: Microscale thermophoresis (MST) on tetrameric LDH1; assay type: binding
Chain of tetrameric LDH1 (P07195 whole entry): as above
Description: (§3) MST measurements were performed on a Nanotemper Monolith NT.115 instrument (NanoTemper Technologies®) using Red-dye-NHS fluorescent labeling. Each LDH sample, purified to homogeneity, was labeled with the Monolith Red-dye-NHS 2nd generation labeling dye (NanoTemper Technologies®), according to the manufacturer's instructions. Measurements were performed in 50 mM sodium phosphate, pH 7.6, and 100 mM NaCl containing 0.05% Tween-20 in premium-treated capillaries (NanoTemper Technologies®). The final concentrations of either labeled protein in the assay were 100 nM. The ligands (NADH and peptides) were titrated in 1:1 dilutions following manufacturer's recommendations. All binding reactions were incubated for 5 min at room temperature after loading into capillaries. Experiments were performed in triplicates using 40% LED power, medium MST power, Laser On time 20 s and Laser Off time 3 s. Peptides were evaluated for their thermophoretic pattern, and Kd's were extracted from raw data at a 10 to 20 s MST on time according to manufacturer's instructions. Regarding interaction of 7 with LDH5, Kd was extracted from the raw fluorescence. A denaturation test was performed accordingly to manufacturer recommendation and excluded any nonspecific spectral interaction between 7 and the red-dye. […]

tetrameric LDH5 = target: T4, tetrameric LDH5 (Homo sapiens, UniProt P00338); assay: Microscale thermophoresis (MST) on tetrameric LDH5; assay type: binding
T4 construct: purchased Abnova
Description: as §3

human LDH1 = human LDH1 (Homo sapiens, UniProt P07195); assay: nanoDSF thermal denaturation of LDH1; assay type: binding; settings: nanoDSF
Chain of human LDH1 (P07195 whole entry): as above

human LDH5 = target: T5, human LDH5 (Homo sapiens, UniProt P00338); assay: nanoDSF thermal denaturation of LDH5; assay type: binding; settings: nanoDSF
T5 construct: purchased Abnova

[3] = linear peptides at 800 μM, LDHBtr 15 μM

| Compound | Binding using WaterLOGSY (800 μM) (LDHBtr [1]; [3]) | Kd (LDHBtr [2]; linear peptides, read-out: Kd using MST experiment) | recovery of fluorescence intensity after denaturation (LDH re-association) (rabbit LDHA (LDH-M)) | LDH5 fluorescence recovery after acidification (rabbit LDH5 (rLDH5)) | NMR WaterLOGSY signal / saturation transfer (LDHBtr [1]) | Interaction with full length LDH1 / competition with LDHB native arm (full length LDH1 enzyme) | Binding using WaterLOGSY (800 μM) (LDHBtr [1]; cyclic peptides at 800 μM) | increase in potency compared to LB8 (LDHBtr [2]; Kd by MST) | binding to tetrameric LDH1 (tetrameric LDH1) | binding to tetrameric LDH5 (tetrameric LDH5) | effect on LDH1 stability (human LDH1) | effect on LDH5 stability (human LDH5) |
| --- | --- | --- | --- | --- | --- | --- | --- | --- | --- | --- | --- | --- |
| CC[C@H](C)[C@H](NC(=O)[C@H](CC(C)C)NC(=O)[C@H](CCCCN)NC(=O)[C@H](CCC(=O)O)NC(=O)[C@H](CCCCN)NC(=O)[C@H](CC(C)C)NC(=O)[C@@H](NC(=O)[C@H](C)N)[C@@H](C)O)C(N)=O [LB8, ATLKEKLI] (H-ATLKEKLI-NH2; N-terminus assumed) | + (binders) | 1400 µM | no effects up to 100 μM | no effect |  |  |  |  |  |  |  |  |
| CC[C@H](C)[C@H](NC(=O)[C@H](CC(C)C)NC(=O)[C@H](CCCCN)NC(=O)[C@H](CCC(=O)O)NC(=O)[C@H](CCCCN)NC(=O)[C@H](CC(C)C)NC(=O)[C@@H](NC(=O)[C@H](C)N)[C@@H](C)O)C(=O)N[C@@H](C)C(=O)N1CCC[C@H]1C(=O)N[C@H](C(=O)N[C@@H](C)C(=O)N[C@@H](CCC(=O)O)C(=O)N[C@@H](CCC(=O)O)C(=O)N[C@@H](CCC(=O)O)C(=O)N[C@@H](C)C(=O)N[C@H](C(=O)N[C@H](C(=O)N1CCC[C@H]1C(N)=O)C(C)C)[C@@H](C)O)C(C)C [LB19, ATLKEKLIAPVAEEEATVP] (H-ATLKEKLIAPVAEEEATVP-NH2; N-terminus assumed) | + (binders) |  |  |  | positive signal | no interaction |  |  |  |  |  |  |
| CC[C@H](C)[C@H](NC(=O)[C@H](CC(C)C)NC(=O)[C@H](CCCCN)NC(=O)[C@@H]1CSCc2cccc(c2)CSC[C@H](N)C(=O)N[C@@H]([C@@H](C)O)C(=O)N[C@@H](CC(C)C)C(=O)N[C@@H](CCCCN)C(=O)N1)C(N)=O [LT018, CTLKCKLI] (H-CTLKCKLI-NH2; linker 1-5 via mXylylene; N-terminus assumed) |  |  | nicely interfered with the fluorescence recovery at 50 μM |  | intense saturation transfer | not able to compete with LDHB native arm | + (binders) | 30 fold |  |  |  |  |
| CC[C@H](C)[C@H](NC(=O)[C@H](CC(C)C)NC(=O)[C@H](CCCCN)NC(=O)[C@@H]1CSCc2cccc(c2)CSC[C@H](N)C(=O)N[C@@H]([C@@H](C)O)C(=O)N[C@@H](CC(C)C)C(=O)N[C@@H](CCCCN)C(=O)N1)C(N)=O [MP1, CTLKCKLI] (H-CTLKCKLI-NH2; linker 1-5 via mXylylene; N-terminus assumed) |  |  |  | significantly interfered |  |  |  |  | did not demonstrated any binding | did not demonstrated any binding | no effect up to 500 μM | no effect up to 500 μM |
| Ac-LIAPVAE-NH2 [LBc, LB19 central fragment evaluated as a negative control, reference compound] | − (non-binders) |  | no effect | no effect | not to demonstrate any appreciable saturation transfer |  |  |  |  |  |  |  |
